# Reference: patent US20080003606A1, “DIAGNOSIS OF TAMOXIFEN SENSITIVITY” (priority 2004, published 2008)
# Test system: ER positive invasive breast cancer
# Assay: Randomized trial of 2 years of adjuvant tamoxifen vs no adjuvant treatment, survival analysed by cyclin D1/A2 expression and CCND1 amplification
# Format: in vivo, human
# Conditions: for Overall Survival RR / Recurrence Free Survival RR: Cox univariate, ER+, tamoxifen vs control (1.00)
# Protocol: During 1984-1991, 564 premenopausal patients or patients under 50 years with stage 11 (pT2 N0 M0, pT1 N1 M0 and pT2, N1 M0) invasive breast cancer were enrolled in a randomized trial of 2 years of adjuvant tamoxifen treatment with a daily dosage of either 40 mg (study center 1) or 20 mg (study center 2) or no adjuvant treatment (detailed in [14]).
# All available archived primary tumor specimens were collected (n=500). Areas with invasive cancer were marked on the H&E stained slides and two 0.6 mm tissue cores were taken from each donor block and mounted in a recipient block using an automated arrayer ((ATA-27, Beecher Inc, WI, USA).
# For cyclin A2 expression, only the fraction of positively staining nuclei were calculated (405 cases) and subdivided into five groups based on the following score: 0 (0-1%), 1 (2-10%), 2 (11-25%), 3 (26-50%) and 4 (>50%). For cyclin D1, the nuclear fraction and intensity as well as the cytoplasmic staining intensity was evaluated (463 cases). The nuclear fractions were divided into the following five subgroups: 0 (0%), 1 (1-25%), 2 (26-50%), 3 (51-75%) and 4 (>75%). The nuclear and cytoplasmic intensity was evaluated as absent=0, weak=1, intermediate=2 and strong=3. The TMA:s had previously been analyzed immunohistochemically for estrogen- (ER) and progesterone (PR) receptor status (anti-ER Clone 6F11 and anti-PgR Clone 16) using the Ventana Benchmark system (Ventana Medical Systems Inc., AZ, USA). In line with the clinically established cut-off used for hormone receptor assessment, tumors with more than 10% positively staining nuclei were considered positive.
# For fluorescence in situ (FISH) analysis of CCND1 gene amplification, two direct-labeled probes were used, LSI cyclin D1 (11q13) SpectrumOrange against CCND1 (11q13) and CEP 11 SpectrumGreen (Vysis Inc., Illinois, USA) against the centromere of chromosome 11. The FISH analysis was performed according to the standard protocol recommended by the manufacturer and according to “LSI® Locus Specific Identifier DNA probes” from Vysis Inc., Illinois. Briefly, tissue sections were de-paraffinized in xylene and alcohol and air-dried. The slides were then microwave-treated in Target Retrieval Solution pH 7.3 (DAKO A/S, Glostrup, Denmark) for 5+5 minutes and treated with 100 μl pepsin (Digest-All 3, Zymed, California, USA) for 8 minutes in 37° C. and washed in water. The de-paraffinized slides were denatured in 70% formamide/2×SSC at 73° C. for 5 minutes followed by dehydration in graded ethanol. A denatured mixture of 1 μl LSI probe, 2 μl pH2O and 7 μl LSI hybridization buffer was added on each slide and incubated at 37° C. overnight. The slides were then washed with 0.4×SSC/0.3% Nonidet P40 at 37±1° C. for 2 minutes followed by a 2×SSC/0.1% NP40 wash at ambient temperature for 1 minute to remove non-specifically bound probe.
# For evaluation, the CCND1 gene was considered amplified when the ratio of orange/green was >1. Non-amplified cases were classified as 0, cases with up to 10 copies as 1 and >10 copies as 2.
# Baseline prognostic and patient characteristics between the original study group, patients with available FISH data (n=280) and patients without FISH data (n=284) were compared using the chi-square test to exclude the possibility of selection bias. Baseline prognostic and patients characteristics were also compared between amplified and non-amplified cases using the same approach as well as the marker distribution according to trial arm. For evaluation of treatment response, only tumors with >10% ER positivity were included. Kaplan-Meier and log-rank tests and univariate Cox regression analyses were used for recurrence free survival (RFS), breast cancer survival (BCS) and overall survival (OS).
# [1] = Multivariate Cox model with A2 NF and interaction variable, adjusted for age, tumor size, NHG, Ki-67 and nodal status
# [2] = Multivariate Cox model with CCND1 amplification and interaction variable, adjusted for age, tumor size, NHG, Ki-67 and nodal status
# [3] = Multivariate Cox model with D1 NF and interaction variable, adjusted for age, tumor size, NHG, Ki-67 and nodal status
# [4] = Multivariate Cox model with D1 NI and interaction variable, adjusted for age, tumor size, NHG, Ki-67 and nodal status
# [5] = Multivariate Cox model, adjusted for age, tumor size, NHG, Ki-67 and nodal status
compound,measurement,setting,value
CC/C(=C(\c1ccccc1)c1ccc(OCCN(C)C)cc1)c1ccccc1 [tamoxifen],tamoxifen effect,CCND1-amplified tumors without high cyclin D1 protein intensity or >50% cyclin D1 positive cells,clear adverse tamoxifen effect
same,Overall Survival RR,CCND1 amplified,2.13
same,Recurrence Free Survival RR,CCND1 amplified,2.22
same,Overall Survival RR,CCND1 not amplified,0.43
same,Recurrence Free Survival RR,CCND1 not amplified,0.39
same,Overall Survival RR,Cyclin A2 nf <10%,0.72
same,Recurrence Free Survival RR,Cyclin A2 nf <10%,0.51
same,Overall Survival RR,Cyclin A2 nf >10%,0.92
same,Recurrence Free Survival RR,Cyclin A2 nf >10%,0.86
same,Overall Survival RR,Cyclin D1 nf <25%,0.65
same,Recurrence Free Survival RR,Cyclin D1 nf <25%,0.62
same,Overall Survival RR,Cyclin D1 nf >25%,0.78
same,Recurrence Free Survival RR,Cyclin D1 nf >25%,0.61
same,Overall Survival RR,Cyclin D1 ni high,0.77
same,Recurrence Free Survival RR,Cyclin D1 ni high,0.84
same,Overall Survival RR,Cyclin D1 ni low/intermediate,0.72
same,Recurrence Free Survival RR,Cyclin D1 ni low/intermediate,0.59
same,"Overall survival RR, Treatment tamoxifen vs control",[1],0.64
same,"Recurrence free survival RR, Treatment tamoxifen vs control",[1],0.46
same,"Overall survival RR, Treatment tamoxifen vs control",[2],0.41
same,"Recurrence free survival RR, Treatment tamoxifen vs control",[2],0.37
same,"Overall survival RR, Treatment tamoxifen vs control",[3],0.67
same,"Recurrence free survival RR, Treatment tamoxifen vs control",[3],0.62
same,"Overall survival RR, Treatment tamoxifen vs control",[4],0.78
same,"Recurrence free survival RR, Treatment tamoxifen vs control",[4],0.62
same,"Overall survival RR, Interaction variable tamoxifen × A2 nf",[5],1.40
same,"Overall survival RR, Interaction variable tamoxifen × CCND1",[5],5.85
same,"Overall survival RR, Interaction variable tamoxifen × D1 nf",[5],1.29
same,"Overall survival RR, Interaction variable tamoxifen × D1 ni",[5],1.00
same,"Recurrence free survival RR, Interaction variable tamoxifen × A2 nf",[5],1.93
same,"Recurrence free survival RR, Interaction variable tamoxifen × CCND1",[5],6.26
same,"Recurrence free survival RR, Interaction variable tamoxifen × D1 nf",[5],0.98
same,"Recurrence free survival RR, Interaction variable tamoxifen × D1 ni",[5],1.27
same,"difference in treatment response, multivariate interaction variable","node positive patients, CCND1-amplified tumors",more then nine-fold
same,10 year RFS,"node positive patients, amplified tumors, treated arm (untreated 68%)",13%
same,difference in tamoxifen treatment effect,"patients with CCND1-amplified tumors, multivariate interaction analyses",6-9 fold
same,10 years RFS,"patients with amplified tumors, tamoxifen treated arm (untreated 62%)",29%
same,10 years OS,"patients with amplified tumors, tamoxifen treated arm (untreated 74%)",56%
same,proportional 10-year recurrence free survival (RFS),"patients with non-amplified tumors, treatment arm (control 44%)",74%
same,10-year overall survival (OS),"patients with non-amplified tumors, treatment arm (control 61%)",78%
same,tamoxifen response,tumors with >10% positive cyclin A2 nuclei,lack of response
same,tamoxifen response,tumors with less than 10% positive cyclin A2 nuclei,responded well
same,tamoxifen response regarding recurrence free survival (RFS),tumors with strong nuclear cyclin D1 staining intensity,did not respond
